The values below come from paper PMC12412324, “Design, synthesis, and evaluation of novel pinane-based thiazolidione derivatives with anti-glioblastoma activity” (Journal of Enzyme Inhibition and Medicinal Chemistry, 2025).

A value given as a limit tells only on which side of the number the result lay.

Format in all cases: cell-based
One test deals with U251. Nature of the test: CCK-8 cell viability assay, U251. Particulars: CCK-8, 72 h, mean ± SD of three independent experiments. On the procedure: (§1) The U87MG cell line (catalogue iCell-h224) and U251MG cell line (catalogue iCell-h219) were purchased from iCell Bioscience Inc (Shanghai) cell bank. T98G cell line was obtained from Yining Zhang’s group. All cells were cultured in DMEM supplemented with 10% (v/v) FBS and penicillin-streptomycin in a humidified incubator at 37 °C under 5% CO2. The different compounds were dissolved in DMSO at the concentration of 10 mM and diluted in serum-free medium. The GBM cells were seeded into 96-well microplates at the density of 6000 cells/well and incubated for 24 h. Fresh media supplemented with different concentrations of the compounds were added, and the cells were cultured for 72 h. The CCK-8 reagent (TargetMol, C0005) was added to each well and the cells were incubated for 4 h at 37 °C. […] the absorbance was measured at […] using a microplate reader (Genios Tecan). An untreated control group was included and its viability was set as 100%. IC50 value of the two probes was calculated using GraphPad Prism 5.0.
(Formazan colour is commonly taken as a measure of viable cells.)

For a further test, the system named is U87. Nature of the test: CCK-8 cell viability assay, U87. Particulars: CCK-8, 72 h, mean ± SD of three independent experiments. On the procedure:
as §1

The next test deals with LO2. Nature of the test: CCK-8 cytotoxicity, normal human cell line LO2.
For a further test, the system named is T98G. As to the kind of experiment: CCK-8 cell viability assay, T98G. Particulars: CCK-8, 72 h, mean ± SD of three independent experiments. The method, then: as §1
Setting [1] is: L02, mean ± SD of three independent experiments.

For the molecule `CN1C(=O)C(=Cc2ccc(N(C)C)cc2)SC1=NN=CC1=CCC2CC1C2(C)C` (stereo not shown) [C4, 5–(4-(Dimethylamino)benzylidene)-2-(((6,6-dimethylbicyclo[3.1.1]hept-2-en-2-yl)methylene)hydrazineylidene)-3-methylthiazolidin-4-one], the IC50 in the test with U251 (Homo sapiens, U-251, 72 h) was 9.7 ± 0.64 µM; in the test with U87 (Homo sapiens, U-87 MG, 72 h) it was 7.56 ± 0.76 µM; in the test on LO2 (setting [1]), greater than 50 µM; in the test on T98G (Homo sapiens, T98G, 72 h) it was 8.8 ± 0.31 µM.
For `Cc1ccc(O)c(C=C2SC(=NN=CC3=CCC4CC3C4(C)C)N(C)C2=O)c1` (stereo not shown) [C9, 2-(((6,6-Dimethylbicyclo[3.1.1]hept-2-en-2-yl)methylene)hydrazineylidene)-5–(2-hydroxy-5-methylbenzylidene)-3-methylthiazolidin-4-one], in that order: 36.7 ± 0.32 µM, 34.1 ± 0.57 µM, greater than 50 µM and 32.11 ± 0.21 µM.
For `COc1ccc(C=C2SC(=NN=CC3=CCC4CC3C4(C)C)N(C)C2=O)cc1O` (stereo not shown) [C11, 2-(((6,6-Dimethylbicyclo[3.1.1]hept-2-en-2-yl)methylene)hydrazineylidene)-5–(3-hydroxy-4-methoxybenzylidene)-3-methylthiazolidin-4-one] the same measures were 14.8 ± 0.1 µM, 13.6 ± 0.21 µM, greater than 50 µM and 12 ± 0.15 µM.
`CN1C(=O)C(=Cc2ccc(Cl)cc2)SC1=NN=CC1=CCC2CC1C2(C)C` (stereo not shown) [C7, 5–(4-Chlorobenzylidene)-2-(((6,6-dimethylbicyclo[3.1.1]hept-2-en-2-yl)methylene) hydrazineylidene)-3-methylthiazolidin-4-one]: the half-inhibitory concentration (IC50) with U251 (Homo sapiens, U-251, 72 h) was 36.8 ± 0.43 µM; in the test with U87 (Homo sapiens, U-87 MG, 72 h), greater than 50 µM; in the test on LO2 (setting [1]), greater than 50 µM; in the test on T98G (Homo sapiens, T98G, 72 h), 33.4 ± 0.77 µM.
`COc1cc(C=C2SC(=NN=CC3=CCC4CC3C4(C)C)N(C)C2=O)ccc1O` (stereo not shown) [C6, 2-(((6,6-Dimethylbicyclo[3.1.1]hept-2-en-2-yl)methylene)hydrazineylidene)-5–(4-hydroxy-3-methoxybenzylidene)-3-methylthiazolidin-4-one]: the IC50 was 10.2 ± 0.65 µM with U251 (Homo sapiens, U-251, 72 h); 9.37 ± 0.43 µM in the test with U87 (Homo sapiens, U-87 MG, 72 h); greater than 50 µM in the test with LO2 (setting [1]); 7.5 ± 0.98 µM in the test on T98G (Homo sapiens, T98G, 72 h).
Consider `COc1cc(O)ccc1/C=C1/SC(NN=CC2=CCC3CC2C3(C)C)N(C)C1=O` (stereo not shown) [C17, 2–(2-((6,6-Dimethylbicyclo[3.1.1]hept-2-en-2-yl)methylene)hydrazineyl)-5-((E)-4-hydroxy-2-methoxybenzylidene)-3-methylthiazolidin-4-one], for which the half-maximal inhibitory concentration (IC50) in the test on U251 (Homo sapiens, U-251, 72 h) is 6.23 ± 0.41 µM; with U87 (Homo sapiens, U-87 MG, 72 h), 9.18 ± 0.2 µM; in the test on LO2 (setting [1]), greater than 50 µM; with T98G (Homo sapiens, T98G, 72 h) it was 5.1 ± 0.26 µM.
For `COc1ccc(C=C2SC(=NN=CC3=CCC4CC3C4(C)C)N(C)C2=O)c(O)c1` (stereo not shown) [C13, 2-(((6,6-Dimethylbicyclo[3.1.1]hept-2-en-2-yl)methylene)hydrazineylidene)-5–(2-hydroxy-4-methoxybenzylidene)-3-methylthiazolidin-4-one] the same measures were 6.65 ± 0.75 µM, 5.71 ± 0.23 µM, greater than 50 µM and 5.54 ± 0.98 µM.
For `CN1C(=O)/C(=C\c2ccc(O)cc2F)SC1NN=CC1=CCC2CC1C2(C)C` (stereo not shown) [C14, 2–(2-((6,6-Dimethylbicyclo[3.1.1]hept-2-en-2-yl)methylene)hydrazineyl)-5-((E)-2-fluoro-4-hydroxybenzylidene)-3-methylthiazolidin-4-one] the same measures were 11.6 ± 0.89 µM, 14.4 ± 0.73 µM, greater than 50 µM and 14.8 ± 0.34 µM.
Take `Cc1cc(O)ccc1/C=C1/SC(NN=CC2=CCC3CC2C3(C)C)N(C)C1=O` (stereo not shown) [C15, 2–(2-((6,6-Dimethylbicyclo[3.1.1]hept-2-en-2-yl)methylene)hydrazineyl)-5-((E)-4-hydroxy-2-methylbenzylidene)-3-methylthiazolidin-4-one]: the IC50 with U251 (Homo sapiens, U-251, 72 h) was 9.01 ± 0.34 µM; in the test with U87 (Homo sapiens, U-87 MG, 72 h), 9.12 ± 0.43 µM; with LO2 (setting [1]), greater than 50 µM; with T98G (Homo sapiens, T98G, 72 h) it was 7.63 ± 0.65 µM.
For `CN1C(=O)C(=Cc2ccc(O)c(Cl)c2)SC1=NN=CC1=CCC2CC1C2(C)C` (stereo not shown) [C10, 5–(3-Chloro-4-hydroxybenzylidene)-2-(((6,6-dimethylbicyclo[3.1.1]hept-2-en-2-yl)methylene)hydrazineylidene)-3-methylthiazolidin-4-one] the same measures were 8.29 ± 0.78 µM, 9.86 ± 0.09 µM, greater than 50 µM and 8.69 ± 0.17 µM.
For `Cc1cc(/C=C2/SC(NN=CC3=CCC4CC3C4(C)C)N(C)C2=O)ccc1O` (stereo not shown) [C16, 2–(2-((6,6-Dimethylbicyclo[3.1.1]hept-2-en-2-yl)methylene)hydrazineyl)-5-((E)-4-hydroxy-3-methylbenzylidene)-3-methylthiazolidin-4-one], in that order: 7.14 ± 0.11 µM, 5.83 ± 0.56 µM, greater than 50 µM and 6.63 ± 0.32 µM.
For `CCN(CC)c1ccc(C=C2SC(=NN=CC3=CCC4CC3C4(C)C)N(C)C2=O)cc1` (stereo not shown) [C8, 5–(4-(Diethylamino)benzylidene)-2-(((6,6-dimethylbicyclo[3.1.1]hept-2-en-2-yl)methylene) hydrazineylidene)-3-methylthiazolidin-4-one], in that order: 27.2 ± 0.62 µM, 42.2 ± 0.46 µM, greater than 50 µM and 38.1 ± 0.78 µM.
`COc1ccc(C=C2SC(=NN=CC3=CCC4CC3C4(C)C)N(C)C2=O)cc1` (stereo not shown) [C1, 2-(((6,6-Dimethylbicyclo[3.1.1]hept-2-en-2-yl)methylene)hydrazineylidene)-5–(4-methoxybenzylidene)-3-methylthiazolidin-4-one]: the IC50 is 12.1 ± 0.31 µM with U251 (Homo sapiens, U-251, 72 h); 13.5 ± 0.43 µM in the test with U87 (Homo sapiens, U-87 MG, 72 h); greater than 50 µM in the test on LO2 (setting [1]); 9.93 ± 0.11 µM in the test on T98G (Homo sapiens, T98G, 72 h).
For `CCOc1cc(C=C2SC(=NN=CC3=CCC4CC3C4(C)C)N(C)C2=O)ccc1O` (stereo not shown) [C12, 2-(((6,6-Dimethylbicyclo[3.1.1]hept-2-en-2-yl)methylene)hydrazineylidene)-5–(3-ethoxy-4-hydroxybenzylidene)-3-methylthiazolidin-4-one] the same measures were 8.01 ± 0.79 µM, 9.37 ± 0.35 µM, greater than 50 µM and 7.1 ± 0.51 µM.
Turning to `COc1ccc(C=C2SC(=NN=CC3=CCC4CC3C4(C)C)N(C)C2=O)cc1` (stereo not shown) [C2, 2-(((6,6-Dimethylbicyclo[3.1.1]hept-2-en-2-yl)methylene)hydrazineylidene)-5–(4-methoxybenzylidene)-3-methylthiazolidin-4-one], the 50% inhibitory concentration (IC50) was 14 ± 0.71 µM with U251, 11.2 ± 0.26 µM in the test with U87, greater than 50 µM with LO2 (mean ± SD of three independent experiments) and 10.1 ± 0.8 µM with T98G.
As for `CSc1ccc(C=C2SC(=NN=CC3=CCC4CC3C4(C)C)N(C)C2=O)cc1` (stereo not shown) [C3, 2-(((6,6-Dimethylbicyclo[3.1.1]hept-2-en-2-yl)methylene)hydrazineylidene)-3-methyl-5–(4-(methylthio)benzylidene)thiazolidin-4-one], the IC50 was 15.2 ± 0.32 µM in the test with U251 (Homo sapiens, U-251, 72 h); 12.3 ± 0.65 µM with U87 (Homo sapiens, U-87 MG, 72 h); greater than 50 µM with LO2 (setting [1]); 16.7 ± 0.67 µM in the test on T98G (Homo sapiens, T98G, 72 h).

For orientation: IC50 means the concentration that inhibits the measured activity by half. High values mean weaker potency, low ones greater potency.
